In ChEMBL document CHEMBL1201862, “PubChem BioAssay data set” (2004):
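Interpolation was linear, between the two tested concentrations surrounding the appropriate level; five concentrations were tested over 48 hours in 96-well plates. GI50 marks 50% less growth.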 The source made the active and inactive calls. Cut-off read from the data, not from the text of the source: active = GI50 up to about 1.1 µM and inactive = higher.

Key:
Test in all cases: DTP human tumour cell line panel, 48 h
[1] = test system: SR
[2] = test system: T47D
[3] = test system: MDA-MB-231
[4] = test system: OVCAR-5
[5] = test system: NCI-H460
[6] = test system: OVCAR-4
[7] = test system: HCT-116
[8] = test system: MOLT-4
[9] = test system: EKVX
[10] = test system: HOP-62
[11] = test system: 786-0
[12] = test system: U-251
[13] = test system: RPMI-8226
[14] = test system: HOP-92
[15] = test system: ACHN
[16] = test system: UO-31
[17] = test system: A549
[18] = test system: HT-29
[19] = test system: CAKI-1
[20] = test system: Hs-578T
[21] = test system: SNB-19
[22] = test system: BT-549
[23] = test system: COLO 205
[24] = test system: SK-MEL-2
[25] = test system: NCI/ADR-RES
[26] = test system: Malme-3M
[27] = test system: OVCAR-3
[28] = test system: IGROV-1
[29] = test system: NCI-H23
[30] = test system: SW-620
[31] = test system: SNB-75
[32] = test system: OVCAR-8
[33] = test system: SN12C
[34] = test system: M14
[35] = test system: PC-3
[36] = test system: CCRF-CEM
[37] = test system: NCI-H226
[38] = test system: SK-MEL-5
[39] = test system: A498
[40] = test system: SF-539
[41] = test system: SF-268
[42] = test system: UACC-62
[43] = test system: MDA-MB-435
[44] = test system: SF-295
[45] = test system: NCI-H522
[46] = test system: SK-MEL-28
[47] = test system: TK-10
[48] = test system: MCF7
[49] = test system: K562
[50] = test system: DU-145
[51] = test system: SK-OV-3
[52] = test system: HL-60
[53] = test system: UACC-257
[54] = test system: HCT-15
[55] = test system: KM12

Nc1nc(N)c2ncn(Cc3ccccc3CCl)c2n1
GI50 [1]: 8.51 µM (inactive) | GI50 [2]: > 100 µM (inactive) | GI50 [3]: > 100 µM (inactive) | GI50 [4]: > 100 µM (inactive) | GI50 [5]: > 100 µM (inactive) | GI50 [6]: 80.5 µM (inactive) | GI50 [7]: > 100 µM (inactive) | GI50 [8]: > 100 µM (inactive) | GI50 [9]: > 100 µM (inactive) | GI50 [10]: > 100 µM (inactive) | GI50 [11]: > 100 µM (inactive) | GI50 [12]: > 100 µM (inactive) | GI50 [13]: > 100 µM (inactive) | GI50 [14]: > 100 µM (inactive) | GI50 [15]: > 100 µM (inactive) | GI50 [16]: > 100 µM (inactive) | GI50 [17]: > 100 µM (inactive) | GI50 [18]: > 100 µM (inactive) | GI50 [19]: > 100 µM (inactive) | GI50 [20]: > 100 µM (inactive) | GI50 [21]: > 100 µM (inactive) | GI50 [22]: > 100 µM (inactive) | GI50 [23]: > 100 µM (inactive) | GI50 [24]: > 100 µM (inactive) | GI50 [25]: > 100 µM (inactive) | GI50 [26]: > 100 µM (inactive) | GI50 [27]: > 100 µM (inactive) | GI50 [28]: > 100 µM (inactive) | GI50 [29]: > 100 µM (inactive) | GI50 [30]: > 100 µM (inactive) | GI50 [31]: > 100 µM (inactive) | GI50 [32]: > 100 µM (inactive) | GI50 [33]: > 100 µM (inactive) | GI50 [34]: > 100 µM (inactive) | GI50 [35]: > 100 µM (inactive) | GI50 [36]: 88.1 µM (inactive) | GI50 [37]: > 100 µM (inactive) | GI50 [38]: 51.1 µM (inactive) | GI50 [39]: > 100 µM (inactive) | GI50 [40]: > 100 µM (inactive) | GI50 [41]: > 100 µM (inactive) | GI50 [42]: > 100 µM (inactive) | GI50 [43]: > 100 µM (inactive) | GI50 [44]: > 100 µM (inactive) | GI50 [45]: > 100 µM (inactive) | GI50 [46]: > 100 µM (inactive) | GI50 [47]: > 100 µM (inactive) | GI50 [48]: > 100 µM (inactive) | GI50 [49]: 50.4 µM (inactive) | GI50 [50]: > 100 µM (inactive) | GI50 [51]: > 100 µM (inactive) | GI50 [52]: 115 nM (active) | GI50 [53]: > 100 µM (inactive) | GI50 [54]: > 100 µM | GI50 [55]: > 100 µM (inactive)
